Structures are written as SMILES.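 Compound exposure: 48 hours, 5 concentrations, 96-well plates. The concentration for full growth arrest is given as TGI.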

What all share (test): NCI-60 cell line screen, 48 h
For assay [1], the system named is SNB-19 CNS.
Assay [2] concerns HOP-62 NSCLC.
For assay [3], the system named is RXF 393 renal.
Assay [4] concerns MOLT-4 leukemia.
For assay [5], the system named is MALME-3M melanoma.
In assay [6] the test system is UACC-62 melanoma.
For assay [7], the system named is SK-MEL-2 melanoma.
Assay [8] deals with K-562 leukemia.
For assay [9], the system named is SW-620 colon.
The subject of assay [10] is EKVX NSCLC.

For `O=C(C1=C(C(=O)c2ccccc2)SC2(S1)C(C(=O)c1ccccc1)=C(C(=O)c1ccccc1)Sc1c2ssc1=O)c1ccccc1`, the TGI in assay [1] is 66.5 µM; in assay [2], > 100 µM; in assay [3], > 100 µM; in assay [4], > 100 µM; in assay [5] it was > 100 µM; in assay [6], 44.9 µM. The TGI in assay [7], in assay [8], in assay [9] and in [10] was > 100 µM each time.
For `CCCCCc1cc2c(cc1O)CC[C@@H]1[C@@H]2CC[C@]2(C)[C@@H](O)CC[C@@H]12`, the TGI in assay [1] came to 40.3 µM; in [2], 41.7 µM; in assay [3] it was 38.3 µM; in [4], 85.3 µM; in assay [5], 35.5 µM; in assay [6], 35.4 µM. Moreover, the TGI in assay [7] turned out to be 43.5 µM; in assay [8] it was 34.9 µM; in [9], 46.4 µM; in assay [10], 36.8 µM.
For the molecule `CC1(C)COC(c2cccc(C3=NC(C)(C)CO3)c2Br)=N1`, the TGI in assay [1], in assay [2], in assay [3], in [4], in assay [5] and in assay [6] was > 100 µM each time. Further, the TGI in [7], in assay [8], in assay [9] and in [10] was > 100 µM throughout.
For `CC[C@]12C=CCN3CCC4(c5cc(N=Nc6ccccc6)c(OC)cc5N(C)[C@H]4[C@@](O)(C(=O)OC)[C@@H]1OC(C)=O)[C@@H]32` (stereo not given in full), the TGI was found to be 47.2 µM in assay [1]; 35.2 µM in assay [2]; 30.9 µM in assay [3]; 34.6 µM in [4]; 33.5 µM in assay [5]; 29.4 µM in assay [6]. The TGI in assay [7] was 31.4 µM; in assay [8], 64.2 µM; in assay [9], 58.7 µM; in assay [10], 34.2 µM.

Source of the values: PubChem BioAssay (NCI).
